From PMC7431030 (Nature, 2020)
“Also recorded” adds a separate entry of the source. Square brackets hold non-standard residues; d marks the D form. Peptide text beside a SMILES is read from it. NMeTrp(1-(4-Br-benzyl)) = CN[C@@H](Cc1cn(Cc2ccc(Br)cc2)c2ccccc12)C(=O)O; Butanoyl(2R-oxy,4-CN) = N#CCC[C@@H](O)C(=O)O; NMeL = CN[C@@H](CC(C)C)C(=O)O; NMeA = CN[C@@H](C)C(=O)O

Tests used:
SIGMAR2/TMEM97 = conditions: annotated activity, Extended Data Fig. 10b; cited from earlier work
SARS-CoV-2 [1] = assay type: cell-based
SARS-CoV-2 [2] = assay type: cell-based; conditions: Vero E6 cells
SARS-CoV-2 [3] = assay type: cell-based; remark: listed apart in the source
viral replication = conditions: cited from earlier work
SIGMAR1 = conditions: Extended Data Fig. 10b, cited from earlier work

Compound | antiviral activity / viral infectivity (in words) (SARS-CoV-2 [2]) | also measured
Cc1cc(OCCN2CCOCC2)nn1-c1ccc2ccccc2c1 [E-52862] |  | binding at SIGMAR2/TMEM97, reported (SIGMAR2/TMEM97): greater than 1 μM
COc1cccc2c1CCCC2CCCN1CCN(C2CCCCC2)CC1 (stereo not shown) [PB28] | effectively reducing viral infectivity | detection of the viral NP protein (in words) (SARS-CoV-2 [1]): decreased the detection of the viral NP protein; times more potent than hydroxychloroquine (SARS-CoV-2 [3]): ~ 20 times
CCCN1CCC=C(c2cc(-c3ccc(C)cc3)no2)C1.O=C(O)C(=O)O [PD-144418] | effectively reducing viral infectivity | 
CC(C)C[C@@H]1NC(=O)[C@H](Cc2cn(Cc3ccc(Br)cc3)c3ccccc23)N(C)C(=O)[C@H](CC(C)C)NC(=O)[C@H](CC(C)C)N(C)C(=O)[C@H](CC(C)C)NC(=O)[C@@H](CCC#N)OC(=O)[C@H](C)N(C)C1=O [PS3061] (cyclo(L[NMeA][Butanoyl(2R-oxy,4-CN)]L[NMeL]L[NMeTrp(1-(4-Br-benzyl))])) | effectively reducing viral infectivity; also recorded: blocked SARS-CoV-2 replication | 
CCCCc1oc2ccccc2c1C(=O)c1cc(I)c(OCCN(CC)CC)c(I)c1 [amiodarone] |  | activity in viral replication assays reported by others (in words) (viral replication): active in viral replication assays
COc1ccc(CCN2CCC(Nc3nc4ccccc4n3Cc3ccc(F)cc3)CC2)cc1 [astemizole] |  | activity in viral replication assays reported by others (in words) (viral replication): active in viral replication assays
Clc1ccc(C(OCCN2CCCCC2)c2ccccc2)cc1 (stereo not shown) [cloperastine] | antiviral activity | 
COc1ccc2c(c1)[C@]13CCCC[C@@H]1[C@H](C2)N(C)CC3 [dextromethorphan] | pro-viral activity | viral titers (TCID50), effect in words (SARS-CoV-2 [3]): increases viral titers
O=C(CCCN1CCC(O)(c2ccc(Cl)cc2)CC1)c1ccc(F)cc1 [haloperidol, Haloperidol] | effectively reducing viral infectivity; also recorded: antiviral activity | 
CCN(CCO)CCCC(C)Nc1ccnc2cc(Cl)ccc12 (stereo not shown) [hydroxychloroquine] | effectively reducing viral infectivity | detection of the viral NP protein (in words) (SARS-CoV-2 [1]): decreased the detection of the viral NP protein
Cc1cc2c(s1)Nc1ccccc1N=C2N1CCN(C)CC1 [olanzapine] | not antiviral | Sigma receptor activity (in words) (SIGMAR1): little Sigma receptor activity; activity at SIGMAR1, reported (SIGMAR1; annotated activity): greater than 5 μM
CC(=O)[C@H]1CC[C@H]2[C@@H]3CCC4=CC(=O)CC[C@]4(C)[C@H]3CC[C@]12C [progesterone] | antiviral | 
Fc1ccc(-n2cc(CCCCN3CCC4(CC3)OCc3ccccc34)c3ccccc32)cc1 [siramesine] | antiviral | 
COc1ccc(CCN(C)CCCC(C#N)(c2ccc(OC)c(OC)c2)C(C)C)cc1OC (stereo not shown) [verapamil] |  | activity in viral replication assays reported by others (in words) (viral replication): active in viral replication assays
COc1cc2c(c(OC)n1)[C@]1(O)[C@H](O)[C@H](CN(C)C)[C@@H](c3ccccc3)[C@]1(c1ccc(C#N)cc1)O2 [zotatifin] | reduce viral infectivity in a concentration-dependent matter; also recorded: effectively reducing viral infectivity; also recorded: strong antiviral effect | detection of the viral NP protein (in words) (SARS-CoV-2 [1]): decreased the detection of the viral NP protein
